Laboratory results reported in patent US20240300942A1, “SMALL MOLECULES FOR TREATEMENT OF CANCER” (VRise Therapeutics Inc., priority 2021, published 2024).

How the values were obtained:
[1] = system: NCI-H1373; experiment: 3D cell proliferation assay, KRAS G12C mutant cell line NCI-H1373; type: cell-based; conditions: Homo sapiens, 168 h, 7 day
Method: (§1) Growth inhibition assays was carried out using 10% FBS supplemented media. Cells were seeded at a desired concentration of 1000-6000 cells/well in a well plate with desired number of wells. Test compounds at a desired concentration range were added after 24 hours. Growth was assessed using the Cell Titer-Glo (CTG. Cell Signaling) for measuring reduction at 0 h (prior to the addition of the test compound) and 3 day (2D) or 7 day (3D) after the addition of test compound. Absorbance read on a BIO-RAD iMark Microplate or any equivalent microplate reader at a predetermined a wavelength for e.g. 450 nm. Data was be analysed and percent inhibition and/or IC50 for each test compound is calculated accordingly. Results: Data provide for a representative Cpd A across various cell lines including selectivity

[2] = system: NCI-H1792; experiment: 3D cell proliferation assay, KRAS G12C mutant cell line NCI-H1792; type: cell-based; conditions: Homo sapiens, 168 h, 7 day
Method: as §1

[3] = system: NCI-H23; experiment: 3D cell proliferation assay, KRAS G12C mutant cell line NCI-H23; type: cell-based; conditions: Homo sapiens, 168 h, 7 day
Method: as §1

[4] = system: Calu-1; experiment: 3D cell proliferation assay, KRAS G12C mutant cell line Calu-1; type: cell-based; conditions: Homo sapiens, 168 h, 7 day
Method: as §1

[5] = system: SW-837; experiment: 3D cell proliferation assay, KRAS G12C mutant cell line SW-837; type: cell-based; conditions: Homo sapiens, SW837, 168 h, 7 day
Method: as §1

[6] = system: SW1463; experiment: 3D cell proliferation assay, KRAS G12C mutant cell line SW1463; type: cell-based; conditions: Homo sapiens, 168 h, 7 day
Method: as §1

[7] = system: eCT26; experiment: 3D cell proliferation assay, eCT26 (engineered for KRASG12C mutation); type: cell-based; conditions: 168 h, 7 day
Method: as §1

[8] = system: CO-04-0070; experiment: 3D cell proliferation assay, CO-04-0070 patient derived cell line; type: cell-based; conditions: 168 h, CO-04-0070 (PDC), 7 day
Method: as §1

[9] = system: A549; experiment: 2D cell proliferation assay, non-KRAS G12C mutant cell line A549; type: cell-based
Method: as §1

[10] = system: HCT116; experiment: 2D cell proliferation assay, non-KRAS G12C mutant cell line HCT116; type: cell-based
Method: as §1

[11] = target: human KRAS G12C protein (Homo sapiens, UniProt P01116, G12C); experiment: HTRF-based nucleotide exchange assay detecting GTP binding to K-Ras; type: biochemical; conditions: KRAS G12C (aa 2-169), SOS1 (aa 564-1049), read-out: IC50, SOS1 mediated nucleotide exchange
human KRAS G12C protein, sequence (P01116 2-169 isoform P01116-2 G12C): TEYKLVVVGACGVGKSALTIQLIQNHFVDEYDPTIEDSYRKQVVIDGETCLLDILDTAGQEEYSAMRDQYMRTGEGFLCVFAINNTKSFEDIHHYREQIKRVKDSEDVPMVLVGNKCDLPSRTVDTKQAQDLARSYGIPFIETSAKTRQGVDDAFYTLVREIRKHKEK
Method: Compounds (each 10 concentrations or any other concentration of choice at 3-fold or fold of choice for serial dilutions with a starting concentration of ˜300 um or 100 μM or 50 uM) were then delivered to the reaction wells using acoustic dispenser (Echo, Labcyte) and incubated with the Kras/aGST-Tb antibody for 1-hour at room temperature. After 1-hour incubation 5 μL of SOS1/GTP solution (SOS1—(corresponding to amino acid 564-1049) and GDP-DY-647P1 prepared using reaction buffer-20 mM Hepes, pH7.4, 150 mM Nacl, 5 mM MgCl2, 1 mM DTT, 0.05% BSA, 0.0025% NP40) was added to reaction wells to initiate the exchange reaction. HTRF based SOS1 mediated exchange of GDP to GTP was measured on a microplate reader PEHRAstar (BMG Labtech) at an excitation wavelength of 337 nm and emission wavelengths of 665 and 620 nm. No-SOS1 reaction or highest control compound concentration was used as blank and % inhibition was calculated and/or IC50 was determined using Sigmoidal dose response (variable slope) equation.

[12] = system: NCI-H358 Human Non-Small Cell Lung Cancer Xenograft; experiment: Anti-tumor effect in female Balb/c nude mice bearing NCI-H358 xenograft; type: in vivo
Method: NCI-H358 Xenograft was used to test representative compound of the invention where in NCI-H358 cells were inoculated in a mice model representing Lung Cancer with […] comprising of Control (Vehicle treated, GI) and two treatment cohorts/group namely Paclitaxel as standard (10 mg/kg Q3D, IV, G3) and test compound (100 mg/kg QD, Cpd A, G3) with each cohorts/group. Treatment was initiated when maximum tumor growth reached >200 mm3 and continued till the Vehicle are reached a maximum tumor volume of 2000 mm3.

C=CC(=O)N1CCN(c2nc(OC[C@@H]3CCCN3C)c(C#N)c3c2CCN(c2cccc4cccc(Cl)c24)C3)C[C@@H]1CC#N (single isomer, unassigned) [Ex 25]
IC50 [1]: 100 to 200 nM | IC50 [2]: 200 to 1000 nM | IC50 [3]: 100 to 200 nM | IC50 [4]: 100 to 200 nM | IC50 [5]: 100 to 200 nM | IC50 [6]: < 100 nM | IC50 [7]: < 100 nM | IC50 [8]: 100 to 200 nM | Fold Selectivity over KRAS G12C Mutant Cell Line [9]: ΩΩΩ (ΩΩΩ >600 fold) | Fold Selectivity over KRAS G12C Mutant Cell Line [10]: Ω (Ω = >100 fold) | IC50 [11]: < 10 nM | reduction in tumour volume as compared to Paclitaxel ([12]; 100 mg/kg QD vs Paclitaxel 10 mg/kg Q3DX3 Weeks, IV): statistically significant reduction | Tumor Growth inhibition (TGI) ([12]; 100 mg/kg QD, NCI-H358 xenograft, n=5): > 65% | reduction in tumor volume ([12]; 100 mg/kg QD, from day 3 onwards, P<0.01): statistically significant | effect on overall body weight ([12]; over the 21-day study period): No significant effect
